The pKi is −log10 of the Ki, conventionally taken in molar units. A low value points to a high Ki. The Ki is a dissociation constant, usually derived from enzyme kinetics or from competition with a known ligand. Read a high Ki as weaker binding.

pKi: −log10 of the molar value.

The source of these data is ChEMBL document CHEMBL4819072, “Radioligand and computational insight in structure - Activity relationship of saccharin derivatives being ipsapirone and revospirone analogues” (Bioorg Med Chem Lett, 2021).

For test [1], the target named is T1, D(4) dopamine receptor (Homo sapiens, UniProt P21917).
T1 sequence (P21917 whole entry): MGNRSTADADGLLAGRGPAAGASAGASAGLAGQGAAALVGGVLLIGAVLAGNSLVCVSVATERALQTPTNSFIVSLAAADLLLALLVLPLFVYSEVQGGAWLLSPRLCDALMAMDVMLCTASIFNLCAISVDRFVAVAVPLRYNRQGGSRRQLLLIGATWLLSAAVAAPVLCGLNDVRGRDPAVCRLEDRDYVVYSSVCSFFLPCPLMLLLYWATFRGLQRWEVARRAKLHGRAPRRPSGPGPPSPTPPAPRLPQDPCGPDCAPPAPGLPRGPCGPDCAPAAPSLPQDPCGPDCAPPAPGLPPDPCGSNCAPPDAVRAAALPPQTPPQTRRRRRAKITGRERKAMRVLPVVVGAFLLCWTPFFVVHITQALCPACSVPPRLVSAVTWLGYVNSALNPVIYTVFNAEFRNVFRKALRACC
Briefly: Binding affinity to human D4R.

Test [2] addresses T2, 5-hydroxytryptamine receptor 1A (Homo sapiens, UniProt P08908).
T2 sequence (P08908 whole entry): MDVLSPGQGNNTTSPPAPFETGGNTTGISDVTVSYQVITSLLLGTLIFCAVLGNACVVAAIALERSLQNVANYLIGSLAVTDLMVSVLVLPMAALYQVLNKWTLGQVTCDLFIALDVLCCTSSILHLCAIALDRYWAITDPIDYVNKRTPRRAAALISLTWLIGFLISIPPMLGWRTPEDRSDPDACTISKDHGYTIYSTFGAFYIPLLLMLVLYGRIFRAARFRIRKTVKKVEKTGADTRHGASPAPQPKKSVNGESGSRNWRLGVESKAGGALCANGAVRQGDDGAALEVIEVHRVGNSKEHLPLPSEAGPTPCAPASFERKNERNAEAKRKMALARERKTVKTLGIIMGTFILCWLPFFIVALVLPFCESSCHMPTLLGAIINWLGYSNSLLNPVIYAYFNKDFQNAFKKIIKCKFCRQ
The test can be described thus: Displacement of [3H]-[…] from human 5-HT1AR expressed in human HEK293 cells. In kind it is cell-based. A general note: In a radioligand displacement assay an active substance lowers the binding of a labelled ligand.

Test [3] concerns the target 5-hydroxytryptamine receptor 7 (Homo sapiens, UniProt P34969). Briefly: Displacement of [3H]-5CT from human 5-HT7R expressed in human HEK293 cells. In kind it is cell-based.
In test [4] the target is 5-hydroxytryptamine receptor 6 (Homo sapiens, UniProt P50406). The test can be described thus: Displacement of [3H]-LSD from human 5-HT6R expressed in human HEK293 cells. In kind it is cell-based.
The target of test [5] is D(2) dopamine receptor (Homo sapiens, UniProt P14416). Briefly: Displacement of [3H]-raclopride from human D2R expressed in human HEK293 cells. In kind it is cell-based.
Test [6] deals with 5-hydroxytryptamine receptor 2A (Homo sapiens, UniProt P28223). Briefly: Displacement of [3H]-ketanserin from human 5-HT2AR expressed in CHO cells. In kind it is cell-based.
For test [7], the target named is T3, Adrenergic receptor alpha-1 (Homo sapiens, UniProt P35348+P25100+P35368).
T3 sequence (P35348 whole entry): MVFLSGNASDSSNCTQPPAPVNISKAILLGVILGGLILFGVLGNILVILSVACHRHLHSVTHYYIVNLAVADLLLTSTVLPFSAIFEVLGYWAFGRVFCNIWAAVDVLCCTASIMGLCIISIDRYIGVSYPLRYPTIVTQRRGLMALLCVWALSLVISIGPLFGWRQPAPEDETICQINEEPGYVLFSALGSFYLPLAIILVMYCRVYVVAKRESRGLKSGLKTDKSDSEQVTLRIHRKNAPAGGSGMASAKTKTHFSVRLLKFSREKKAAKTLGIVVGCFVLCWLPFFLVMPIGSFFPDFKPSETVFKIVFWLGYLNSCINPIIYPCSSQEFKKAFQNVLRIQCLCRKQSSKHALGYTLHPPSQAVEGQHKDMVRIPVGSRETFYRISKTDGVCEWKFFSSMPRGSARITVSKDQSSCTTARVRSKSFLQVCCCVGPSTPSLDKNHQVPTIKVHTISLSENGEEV
T3 sequence (P25100 whole entry): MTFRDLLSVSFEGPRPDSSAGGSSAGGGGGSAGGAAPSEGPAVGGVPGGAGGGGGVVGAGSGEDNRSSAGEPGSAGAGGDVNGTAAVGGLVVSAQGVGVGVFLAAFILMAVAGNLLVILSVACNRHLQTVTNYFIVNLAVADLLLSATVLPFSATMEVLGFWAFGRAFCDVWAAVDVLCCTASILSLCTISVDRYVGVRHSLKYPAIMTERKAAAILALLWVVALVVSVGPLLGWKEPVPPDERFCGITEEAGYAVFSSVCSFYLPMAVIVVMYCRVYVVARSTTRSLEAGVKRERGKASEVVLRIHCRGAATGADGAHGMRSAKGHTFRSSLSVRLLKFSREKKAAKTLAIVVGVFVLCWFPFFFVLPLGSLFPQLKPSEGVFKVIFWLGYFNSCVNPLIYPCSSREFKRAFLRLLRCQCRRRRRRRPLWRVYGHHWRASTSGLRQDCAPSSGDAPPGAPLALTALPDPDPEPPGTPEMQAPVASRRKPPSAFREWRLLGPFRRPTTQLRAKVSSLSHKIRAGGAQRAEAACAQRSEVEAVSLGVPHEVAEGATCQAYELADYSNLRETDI
T3 sequence (P35368 whole entry): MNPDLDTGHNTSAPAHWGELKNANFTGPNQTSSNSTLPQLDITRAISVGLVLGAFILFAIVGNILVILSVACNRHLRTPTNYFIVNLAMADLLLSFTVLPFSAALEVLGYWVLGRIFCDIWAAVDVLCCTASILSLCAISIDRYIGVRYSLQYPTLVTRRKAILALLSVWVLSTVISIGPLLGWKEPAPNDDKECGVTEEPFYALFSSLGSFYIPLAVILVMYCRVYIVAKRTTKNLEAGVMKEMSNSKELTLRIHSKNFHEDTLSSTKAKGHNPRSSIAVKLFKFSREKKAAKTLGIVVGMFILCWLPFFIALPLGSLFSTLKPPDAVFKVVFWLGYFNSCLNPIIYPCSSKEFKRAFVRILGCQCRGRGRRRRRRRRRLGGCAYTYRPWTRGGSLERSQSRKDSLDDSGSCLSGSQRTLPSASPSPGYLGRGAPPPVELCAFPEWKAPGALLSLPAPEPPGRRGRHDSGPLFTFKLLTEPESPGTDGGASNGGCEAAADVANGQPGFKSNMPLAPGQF
The test can be described thus: Binding affinity to human adrenergic receptor alpha1. The class given is protein assay.

Test [8] addresses T4, 5-hydroxytryptamine receptor 2C (Homo sapiens, UniProt P28335).
T4 sequence (P28335 whole entry): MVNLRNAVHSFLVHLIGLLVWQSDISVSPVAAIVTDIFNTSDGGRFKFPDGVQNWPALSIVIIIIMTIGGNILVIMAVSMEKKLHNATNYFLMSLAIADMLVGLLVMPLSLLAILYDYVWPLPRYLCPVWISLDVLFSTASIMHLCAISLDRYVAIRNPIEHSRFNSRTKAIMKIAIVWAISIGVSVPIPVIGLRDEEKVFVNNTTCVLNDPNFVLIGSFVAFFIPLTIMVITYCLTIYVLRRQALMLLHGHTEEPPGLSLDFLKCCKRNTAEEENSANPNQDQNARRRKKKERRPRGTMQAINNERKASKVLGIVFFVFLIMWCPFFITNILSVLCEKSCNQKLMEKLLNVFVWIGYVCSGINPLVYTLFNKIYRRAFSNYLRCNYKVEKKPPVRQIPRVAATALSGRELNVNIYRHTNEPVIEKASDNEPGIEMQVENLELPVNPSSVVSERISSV
The test can be described thus: Binding affinity to human 5-HT2C.

For test [9], the target named is D(1A) dopamine receptor (Homo sapiens, UniProt P21728). The test can be described thus: Binding affinity to human D1R.
Test [10] addresses T5, 5-hydroxytryptamine receptor 1A (Rattus norvegicus, UniProt P19327).
T5 sequence (P19327 whole entry): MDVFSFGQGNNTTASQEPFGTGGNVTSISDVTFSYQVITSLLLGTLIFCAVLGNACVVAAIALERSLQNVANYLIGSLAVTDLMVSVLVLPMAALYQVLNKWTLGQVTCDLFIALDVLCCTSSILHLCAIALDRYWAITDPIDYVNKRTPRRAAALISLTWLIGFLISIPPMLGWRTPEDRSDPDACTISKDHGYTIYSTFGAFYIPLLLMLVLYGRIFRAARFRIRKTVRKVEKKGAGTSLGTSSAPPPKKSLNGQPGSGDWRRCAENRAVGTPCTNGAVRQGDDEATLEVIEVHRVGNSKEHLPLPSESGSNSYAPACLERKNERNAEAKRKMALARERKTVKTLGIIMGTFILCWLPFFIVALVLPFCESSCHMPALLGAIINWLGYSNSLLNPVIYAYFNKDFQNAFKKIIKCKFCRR
The test can be described thus: Displacement of [3H]-[…] from Wistar rat frontal region 5-HT1AR incubated for 30 mins. In kind it is tissue-based, Frontal lobe.

In test [11] the target is D(2) dopamine receptor (Rattus norvegicus, UniProt P61169). Briefly: Displacement of [3H]-spiperone from DRD2 in rat striatum incubated for 45 mins by liquid scintillation counting. In kind it is tissue-based.
Chain of D(2) dopamine receptor (Rattus norvegicus, UniProt P61169) (P61169 whole entry): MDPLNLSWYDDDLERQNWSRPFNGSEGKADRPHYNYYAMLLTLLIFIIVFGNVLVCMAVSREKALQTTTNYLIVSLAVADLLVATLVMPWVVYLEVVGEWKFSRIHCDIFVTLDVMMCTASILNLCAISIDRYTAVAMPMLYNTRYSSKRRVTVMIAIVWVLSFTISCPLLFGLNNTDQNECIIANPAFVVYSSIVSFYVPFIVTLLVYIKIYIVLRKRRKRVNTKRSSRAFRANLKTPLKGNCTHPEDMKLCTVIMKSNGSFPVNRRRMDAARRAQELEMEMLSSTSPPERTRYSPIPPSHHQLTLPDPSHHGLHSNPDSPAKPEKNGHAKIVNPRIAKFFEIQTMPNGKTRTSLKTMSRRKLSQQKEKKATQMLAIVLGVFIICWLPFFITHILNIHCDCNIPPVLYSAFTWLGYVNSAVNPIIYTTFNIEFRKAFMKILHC

Chain of 5-hydroxytryptamine receptor 7 (P34969 whole entry): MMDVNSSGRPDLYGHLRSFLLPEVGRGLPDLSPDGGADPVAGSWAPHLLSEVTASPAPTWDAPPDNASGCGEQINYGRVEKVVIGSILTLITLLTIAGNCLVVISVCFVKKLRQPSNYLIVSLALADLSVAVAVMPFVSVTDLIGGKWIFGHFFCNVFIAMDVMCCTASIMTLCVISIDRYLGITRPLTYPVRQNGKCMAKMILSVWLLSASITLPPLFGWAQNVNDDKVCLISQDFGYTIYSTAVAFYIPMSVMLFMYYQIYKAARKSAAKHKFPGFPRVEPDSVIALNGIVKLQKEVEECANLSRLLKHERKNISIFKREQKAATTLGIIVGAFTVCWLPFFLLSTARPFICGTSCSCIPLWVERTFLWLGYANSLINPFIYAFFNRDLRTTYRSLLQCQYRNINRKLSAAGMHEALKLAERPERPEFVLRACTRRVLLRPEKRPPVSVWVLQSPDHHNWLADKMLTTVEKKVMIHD
Chain of 5-hydroxytryptamine receptor 2A (P28223 whole entry): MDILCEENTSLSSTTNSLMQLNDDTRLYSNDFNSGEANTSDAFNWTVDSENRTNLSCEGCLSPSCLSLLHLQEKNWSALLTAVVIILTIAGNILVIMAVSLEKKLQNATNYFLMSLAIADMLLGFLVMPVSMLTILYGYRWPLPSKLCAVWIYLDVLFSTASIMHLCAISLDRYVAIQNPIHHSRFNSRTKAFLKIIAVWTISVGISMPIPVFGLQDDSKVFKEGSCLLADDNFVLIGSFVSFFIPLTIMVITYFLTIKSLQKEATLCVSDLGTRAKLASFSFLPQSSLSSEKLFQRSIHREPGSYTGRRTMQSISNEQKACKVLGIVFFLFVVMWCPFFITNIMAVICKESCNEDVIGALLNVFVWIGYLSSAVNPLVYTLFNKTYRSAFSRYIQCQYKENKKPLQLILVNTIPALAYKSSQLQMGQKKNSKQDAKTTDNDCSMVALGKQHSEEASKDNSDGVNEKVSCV
Chain of D(2) dopamine receptor (Homo sapiens, UniProt P14416) (P14416 whole entry): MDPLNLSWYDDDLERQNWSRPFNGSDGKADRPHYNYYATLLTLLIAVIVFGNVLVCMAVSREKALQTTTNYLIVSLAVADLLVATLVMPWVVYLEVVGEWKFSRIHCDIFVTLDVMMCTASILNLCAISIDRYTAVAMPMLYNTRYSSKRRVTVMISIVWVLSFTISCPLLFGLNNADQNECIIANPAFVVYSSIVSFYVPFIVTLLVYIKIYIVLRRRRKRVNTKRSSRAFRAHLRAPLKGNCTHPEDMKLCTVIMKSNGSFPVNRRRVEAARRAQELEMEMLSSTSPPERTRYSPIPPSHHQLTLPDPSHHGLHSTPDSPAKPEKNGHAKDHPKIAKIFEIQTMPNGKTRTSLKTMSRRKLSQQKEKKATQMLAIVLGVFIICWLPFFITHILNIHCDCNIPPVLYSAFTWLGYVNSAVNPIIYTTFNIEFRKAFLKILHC
Chain of 5-hydroxytryptamine receptor 6 (P50406 whole entry): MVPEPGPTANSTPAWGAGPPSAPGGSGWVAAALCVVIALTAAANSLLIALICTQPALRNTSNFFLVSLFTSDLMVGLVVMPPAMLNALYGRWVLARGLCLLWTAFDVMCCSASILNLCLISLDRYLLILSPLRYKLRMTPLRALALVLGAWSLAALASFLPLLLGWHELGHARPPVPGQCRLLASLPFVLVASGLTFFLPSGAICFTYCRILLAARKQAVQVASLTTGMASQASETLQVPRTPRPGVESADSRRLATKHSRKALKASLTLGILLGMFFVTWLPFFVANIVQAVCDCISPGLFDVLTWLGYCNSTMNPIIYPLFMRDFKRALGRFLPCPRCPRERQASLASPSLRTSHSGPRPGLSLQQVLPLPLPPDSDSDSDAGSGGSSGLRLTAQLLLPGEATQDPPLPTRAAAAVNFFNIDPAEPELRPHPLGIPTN
Chain of D(1A) dopamine receptor (P21728 whole entry): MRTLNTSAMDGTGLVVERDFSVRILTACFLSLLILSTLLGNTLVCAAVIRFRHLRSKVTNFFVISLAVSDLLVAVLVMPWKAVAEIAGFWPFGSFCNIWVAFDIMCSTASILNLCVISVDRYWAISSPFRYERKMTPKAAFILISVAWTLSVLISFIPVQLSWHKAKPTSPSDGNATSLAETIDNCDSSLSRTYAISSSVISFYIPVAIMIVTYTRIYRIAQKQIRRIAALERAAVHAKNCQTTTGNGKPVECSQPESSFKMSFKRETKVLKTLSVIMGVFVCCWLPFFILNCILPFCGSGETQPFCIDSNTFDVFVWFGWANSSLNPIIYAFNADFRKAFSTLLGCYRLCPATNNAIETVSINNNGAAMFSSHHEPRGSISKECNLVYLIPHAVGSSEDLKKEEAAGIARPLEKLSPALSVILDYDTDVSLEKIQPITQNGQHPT

`COc1ccccc1N1CCN(CCCCN2C(=O)c3ccccc3S2(=O)=O)CC1` gave a negative logarithm of the Ki (pKi) in [1] of 7.10.
The same measure, in the same setting: the result for `O=C1c2ccccc2S(=O)(=O)N1CCCCN1CCN(c2ccccc2)CC1` reads 6.87.
As for `O=C1c2ccccc2S(=O)(=O)N1CCCCCN1CCN(c2cccc(Cl)c2Cl)CC1`, the negative logarithm of the Ki (pKi) is 7.54 in test [2]; 6.83 in [3]; 6.71 in [4]; 7.77 in test [5]; 6.90 in [6].
As for `O=C1c2ccccc2S(=O)(=O)N1CCCCN1CCN(c2ncccn2)CC1` [IPSAPIRONE], the pKi is 8.10 in [2], 5.85 in test [3], 4.77 in test [4] and 4.82 in test [6]. Besides, in [7], the Ki is listed as 229 nM.
`O=C1c2ccccc2S(=O)(=O)N1CCCCN1CCN(c2cccc(Cl)c2Cl)CC1`: the negative-log Ki (pKi) in [2] is 9.00; in test [3], 6.43; in test [4] it was 5.57; in [5] it was 7.59; in test [6] it was 5.59.
Regarding `O=C1c2ccccc2S(=O)(=O)N1CCCCN1CCN(c2cccc(C(F)(F)F)c2)CC1`, the pKi in test [2] was 7.00; in [1] it was under 5.30; in [6], 5.65; in [8] it was under 5.30; in test [9] it was under 5.30; in [10], 7.00. In addition, the pKi in test [11] is 5.65. Further, the Ki in [7] worked out at 1500 nM.
For the compound `COc1ccccc1N1CCN(CCCCCCN2C(=O)c3ccccc3S2(=O)=O)CC1`, the negative-log Ki (pKi) in [2] is 8.00; in test [3] it was 6.98; in test [4] it was 6.11; in test [5], 9.00; in [6], 6.12.
As to `O=C1c2ccccc2S(=O)(=O)N1CCCN1CCN(c2cccc(C(F)(F)F)c2)CC1`, the values for the negative logarithm of the Ki (pKi) in [2], in test [6] and in test [8] were 6.40, 6.15 and under 5.30, respectively.
For the compound `O=C1c2ccccc2S(=O)(=O)N1CCCCCN1CCN(c2cccc3ccccc23)CC1`, the negative logarithm of the Ki (pKi) was 7.80 in [2]; 7.44 in test [3]; 7.00 in test [4]; 7.70 in test [5]; 6.98 in [6].
Compound `O=C1c2ccccc2S(=O)(=O)N1CCCCN1CCN(c2ccc(Cl)cc2)CC1` showed a negative logarithm of the Ki (pKi) in test [1] of 7.44.
As for `COc1ccccc1N1CCN(Cc2ccc(CN3C(=O)c4ccccc4S3(=O)=O)cc2)CC1`, the pKi in test [2] was 7.11; in [3] it was 7.01; in test [4] it was 5.00; in test [5], 8.70; in [6], 5.32.
For `O=C1c2ccccc2S(=O)(=O)N1CCCCCN1CCN(c2ccc(Cl)cc2)CC1`, in that order: 7.00, 6.72, 6.15, 6.60 and 6.86.
Take `O=C1c2ccccc2S(=O)(=O)N1CCCCCN1CCN(c2ccccn2)CC1`: the negative-log Ki (pKi) is 7.89 in test [2]; 6.75 in test [3]; 5.58 in test [4]; 7.04 in test [5]; 5.84 in test [6].
